Key:
human HIPK1 = molecular target: T1, human HIPK1 (Homo sapiens, UniProt Q86Z02); experiment: HIPK1 enzyme assay (ADP-Glo); assay type: biochemical; conditions: ADP-Glo, ATP 5 μM; read-out: HIPK1 IC50
T1 construct: Recombinant human HIPK1 (156-555); GST (N); purchased SignalChem H03-11G; host or cells: Sf9 insect cells
Procedure, shortened: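 Recombinant GST-tagged HIPK1 (156-555, Sf9), 4 nM, preincubated 30 min at 25° C with compound in Tris pH 7.5/MgCl2/BSA/DTT, then reacted 90 min with 0.05 mg/ml MBP and 5 μM ATP. ADP formed read by ADP-Glo luminescence; IC50 from four-parameter logistic fit of % inhibition versus Max/Min controls.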

[1] = test system: Neonatal Rat Ventricular Myocytes (NRVMs); experiment: Myocyte proliferation assay (EdU assay) in neonatal rat ventricular myocytes; assay type: cell-based; conditions: growth relative to blank myocyte growth without compound added; for Avg 1 uM (average myocyte proliferation): compound 1 uM; for Avg 3 uM (average myocyte proliferation): compound 3 uM; for Avg 10 uM (average myocyte proliferation): compound 10 uM
Procedure, shortened: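 Neonatal rat ventricular myocytes, fibroblast-depleted by preplating, serum-starved 24 h (2% FBS/ITS), then given compound at 10, 3 or 1 uM in 6% FBS medium for 36 h before 12 h EdU labelling. Fixed cells stained for EdU (Click-iT), ab8295 primary antibody and DAPI; quantified by high-content confocal imaging.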

T1 sequence (Q86Z02 156-555): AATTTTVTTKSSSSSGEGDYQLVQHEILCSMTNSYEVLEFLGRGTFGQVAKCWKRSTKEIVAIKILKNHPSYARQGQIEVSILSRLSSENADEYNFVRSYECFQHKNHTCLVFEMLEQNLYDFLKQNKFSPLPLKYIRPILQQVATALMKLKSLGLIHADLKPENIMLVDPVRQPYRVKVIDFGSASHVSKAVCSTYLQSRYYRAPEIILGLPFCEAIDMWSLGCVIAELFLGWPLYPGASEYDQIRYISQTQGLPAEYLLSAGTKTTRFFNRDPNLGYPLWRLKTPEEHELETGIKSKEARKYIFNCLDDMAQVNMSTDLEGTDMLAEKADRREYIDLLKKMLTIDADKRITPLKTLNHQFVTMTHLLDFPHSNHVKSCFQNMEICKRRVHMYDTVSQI

SMILES: O=C1NC(N(Cc2ccccc2)c2ccccc2)=N/C1=C\c1ccc2[nH]cnc2c1 [Example 35, (Z)-5-((1H-benzo[d]imidazol-5-yl)methylene)-2-(benzyl(phenyl)amino)-3,5-dihydro-4H-imidazol-4-one]
- IC50 (human HIPK1): > 10 µM
- Avg 1 uM (average myocyte proliferation) [1]: * (<10% growth relative to blank myocyte growth without compound added.)
- Avg 3 uM (average myocyte proliferation) [1]: * (<10% growth relative to blank myocyte growth without compound added.)

SMILES: NC(=O)CCN(C1=N/C(=C\c2ccc3c(c2)OCO3)C(=O)N1)c1ccccc1 [Example 36, (Z)-3-((4-(benzo[d][1,3]dioxol-5-ylmethylene)-5-oxo-4,5-dihydro-1H-imidazol-2-yl)(phenyl)amino)propanamide]
- IC50 (human HIPK1): > 10 µM
- Avg 1 uM (average myocyte proliferation) [1]: * (<10% growth relative to blank myocyte growth without compound added.)
- Avg 3 uM (average myocyte proliferation) [1]: ** (10%-50%)

SMILES: CN(C1=N/C(=C\c2ccc3c(c2)OCO3)C(=O)N1)c1ccc(N)cc1 [Example 37, (Z)-2-((4-aminophenyl)(methyl)amino)-5-(benzo[d][1,3]dioxol-5-ylmethylene)-3,5-dihydro-4H-imidazol-4-one]
- IC50 (human HIPK1): > 10 µM
- Avg 1 uM (average myocyte proliferation) [1]: *** (>50%)
- Avg 3 uM (average myocyte proliferation) [1]: ** (10%-50%)
- Avg 10 uM (average myocyte proliferation) [1]: ** (10%-50%)

SMILES: COc1ccc(N(C)C2=N/C(=C\c3ccc4ncsc4c3)C(=O)N2)cc1 [Example 38, (Z)-5-(benzo[d]thiazol-6-ylmethylene)-2-((4-methoxyphenyl)(methyl)amino)-3,5-dihydro-4H-imidazol-4-one]
- IC50 (human HIPK1): 1 to 10 µM
- Avg 1 uM (average myocyte proliferation) [1]: *** (>50%)
- Avg 3 uM (average myocyte proliferation) [1]: ** (10%-50%)
- Avg 10 uM (average myocyte proliferation) [1]: *** (>50%)

SMILES: O=C1NC(N(CC2CC2)c2ccccc2)=N/C1=C\c1ccc2c(c1)OCCO2 [Example 39, (Z)-2-((cyclopropylmethyl)(phenyl)amino)-5-((2,3-dihydrobenzo[b][1,4]dioxin-6-yl)methylene)-3,5-dihydro-4H-imidazol-4-one]
- IC50 (human HIPK1): > 10 µM
- Avg 1 uM (average myocyte proliferation) [1]: *** (>50%)
- Avg 3 uM (average myocyte proliferation) [1]: ** (10%-50%)
- Avg 10 uM (average myocyte proliferation) [1]: * (<10% growth relative to blank myocyte growth without compound added.)

SMILES: O=C1NC(Nc2ccc(Cl)cc2)=N/C1=C\c1ccc2ncsc2c1 [Example 40, (Z)-5-(benzo[d]thiazol-6-ylmethylene)-2-((4-chlorophenyl)amino)-3,5-dihydro-4H-imidazol-4-one]
- IC50 (human HIPK1): 1 to 10 µM
- Avg 1 uM (average myocyte proliferation) [1]: *** (>50%)
- Avg 3 uM (average myocyte proliferation) [1]: *** (>50%)
- Avg 10 uM (average myocyte proliferation) [1]: *** (>50%)

SMILES: O=C1NC(N(Cc2ccccc2)c2ccccc2)=N/C1=C\c1ccc2ncsc2c1 [Example 41, (Z)-5-(benzo[d]thiazol-6-ylmethylene)-2-(benzyl(phenyl)amino)-3,5-dihydro-4H-imidazol-4-one]
- IC50 (human HIPK1): > 10 µM
- Avg 1 uM (average myocyte proliferation) [1]: * (<10% growth relative to blank myocyte growth without compound added.)
- Avg 3 uM (average myocyte proliferation) [1]: * (<10% growth relative to blank myocyte growth without compound added.)
- Avg 10 uM (average myocyte proliferation) [1]: ** (10%-50%)

SMILES: O=C1/C(=C/c2ccc3ncsc3c2)N=C(N(Cc2ccccc2)c2ccccc2)N1Cc1ccccc1 [Example 42, (Z)-5-(benzo[d]thiazol-6-ylmethylene)-3-benzyl-2-(benzyl(phenyl)amino)-3,5-dihydro-4H-imidazol-4-one]
- IC50 (human HIPK1): > 10 µM
- Avg 1 uM (average myocyte proliferation) [1]: ** (10%-50%)
- Avg 3 uM (average myocyte proliferation) [1]: ** (10%-50%)
- Avg 10 uM (average myocyte proliferation) [1]: *** (>50%)

SMILES: CN(C1=N/C(=C\c2ccc3ncsc3c2)C(=O)N1)c1ccc([N+](=O)[O-])cc1 [Example 43, (Z)-5-(benzo[d]thiazol-6-ylmethylene)-2-(methyl(4-nitrophenyl)amino)-3,5-dihydro-4H-imidazol-4-one]
- IC50 (human HIPK1): > 10 µM
- Avg 1 uM (average myocyte proliferation) [1]: ** (10%-50%)
- Avg 3 uM (average myocyte proliferation) [1]: ** (10%-50%)
- Avg 10 uM (average myocyte proliferation) [1]: ** (10%-50%)

SMILES: CN(C1=N/C(=C\c2ccc3ncsc3c2)C(=O)N1)c1ccc(N)cc1 [Example 44, (Z)-2-((4-aminophenyl)(methyl)amino)-5-(benzo[d]thiazol-6-ylmethylene)-3,5-dihydro-4H-imidazol-4-one]
- IC50 (human HIPK1): 1 to 10 µM
- Avg 1 uM (average myocyte proliferation) [1]: *** (>50%)
- Avg 3 uM (average myocyte proliferation) [1]: ** (10%-50%)
- Avg 10 uM (average myocyte proliferation) [1]: ** (10%-50%)

SMILES: CC(C)NC1=N/C(=C\c2ccc3ncsc3c2)C(=O)N1C [Example 45, (Z)-5-(benzo[d]thiazol-6-ylmethylene)-2-(isopropylamino)-3-methyl-3,5-dihydro-4H-imidazol-4-one]
- IC50 (human HIPK1): 1 to 10 µM
- Avg 1 uM (average myocyte proliferation) [1]: ** (10%-50%)
- Avg 3 uM (average myocyte proliferation) [1]: ** (10%-50%)
- Avg 10 uM (average myocyte proliferation) [1]: ** (10%-50%)

SMILES: Cn1cnc2ccc(/C=C3\N=C(Nc4ccccc4)NC3=O)cc21 [Example 46, (Z)-5-((1-methyl-1H-benzo[d]imidazol-6-yl)methylene)-2-(phenylamino)-3,5-dihydro-4H-imidazol-4-one]
- IC50 (human HIPK1): 0.1 to 1 µM
- Avg 1 uM (average myocyte proliferation) [1]: *** (>50%)
- Avg 3 uM (average myocyte proliferation) [1]: ** (10%-50%)
- Avg 10 uM (average myocyte proliferation) [1]: *** (>50%)

SMILES: O=C1NC(Nc2ccc3ncsc3c2)=N/C1=C\c1ccc2c(c1)OCO2 [Example 47, (Z)-5-(benzo[d][1,3]dioxol-5-ylmethylene)-2-(benzo[d]thiazol-6-ylamino)-3,5-dihydro-4H-imidazol-4-one]
- IC50 (human HIPK1): > 10 µM
- Avg 1 uM (average myocyte proliferation) [1]: *** (>50%)
- Avg 3 uM (average myocyte proliferation) [1]: *** (>50%)
- Avg 10 uM (average myocyte proliferation) [1]: *** (>50%)

SMILES: O=C1NC(Nc2ccc3ncsc3c2)=N/C1=C\c1ccc2ncsc2c1 [Example 48, (Z)-2-(benzo[d]thiazol-6-ylamino)-5-(benzo[d]thiazol-6-ylmethylene)-3,5-dihydro-4H-imidazol-4-one]
- IC50 (human HIPK1): 0.1 to 1 µM
- Avg 1 uM (average myocyte proliferation) [1]: *** (>50%)
- Avg 3 uM (average myocyte proliferation) [1]: *** (>50%)
- Avg 10 uM (average myocyte proliferation) [1]: *** (>50%)

SMILES: CC(C)NC1=N/C(=C\c2ccc3scnc3c2)C(=O)N1 [Example 49, (Z)-5-(benzo[d]thiazol-5-ylmethylene)-2-(isopropylamino)-3,5-dihydro-4H-imidazol-4-one]
- IC50 (human HIPK1): > 10 µM
- Avg 1 uM (average myocyte proliferation) [1]: * (<10% growth relative to blank myocyte growth without compound added.)
- Avg 3 uM (average myocyte proliferation) [1]: ** (10%-50%)
- Avg 10 uM (average myocyte proliferation) [1]: *** (>50%)

SMILES: O=C1NC(NC23CC4CC(CC(C4)C2)C3)=N/C1=C\c1ccc2scnc2c1 [Example 50, (Z)-2-(adamantan-1-ylamino)-5-(benzo[d]thiazol-5-ylmethylene)-3,5-dihydro-4H-imidazol-4-one]
- IC50 (human HIPK1): > 10 µM
- Avg 1 uM (average myocyte proliferation) [1]: * (<10% growth relative to blank myocyte growth without compound added.)
- Avg 3 uM (average myocyte proliferation) [1]: * (<10% growth relative to blank myocyte growth without compound added.)

SMILES: O=C1NC(Nc2ccccc2)=N/C1=C\c1ccc2[nH]ccc2c1 [Example 51, (Z)-5-((1H-indol-5-yl)methylene)-2-(phenylamino)-3,5-dihydro-4H-imidazol-4-one]
- IC50 (human HIPK1): > 10 µM
- Avg 1 uM (average myocyte proliferation) [1]: ** (10%-50%)
- Avg 3 uM (average myocyte proliferation) [1]: ** (10%-50%)
- Avg 10 uM (average myocyte proliferation) [1]: ** (10%-50%)

SMILES: O=C1NC(Nc2ccccc2)=N/C1=C\c1ccc2occc2c1 [Example 52, (Z)-5-(benzofuran-5-ylmethylene)-2-(phenylamino)-3,5-dihydro-4H-imidazol-4-one]
- IC50 (human HIPK1): > 10 µM
- Avg 1 uM (average myocyte proliferation) [1]: ** (10%-50%)
- Avg 3 uM (average myocyte proliferation) [1]: ** (10%-50%)
- Avg 10 uM (average myocyte proliferation) [1]: ** (10%-50%)

SMILES: O=C1NC(Nc2ccccc2)=N/C1=C\c1ccc2ncccc2c1 [Example 53, (Z)-2-(phenylamino)-5-(quinolin-6-ylmethylene)-3,5-dihydro-4H-imidazol-4-one]
- IC50 (human HIPK1): > 10 µM
- Avg 1 uM (average myocyte proliferation) [1]: ** (10%-50%)
- Avg 3 uM (average myocyte proliferation) [1]: *** (>50%)
- Avg 10 uM (average myocyte proliferation) [1]: ** (10%-50%)

SMILES: O=C1NC(Nc2ccccc2)=N/C1=C\c1ccc2cn[nH]c2c1 [Example 54, (Z)-5-((1H-indazol-6-yl)methylene)-2-(phenylamino)-3,5-dihydro-4H-imidazol-4-one]
- IC50 (human HIPK1): > 10 µM
- Avg 1 uM (average myocyte proliferation) [1]: * (<10% growth relative to blank myocyte growth without compound added.)
- Avg 3 uM (average myocyte proliferation) [1]: * (<10% growth relative to blank myocyte growth without compound added.)

SMILES: O=C1NC(Nc2ccccc2)=N/C1=C\c1ccc2[nH]ncc2c1 [Example 55, (Z)-5-((1H-indazol-5-yl)methylene)-2-(phenylamino)-3,5-dihydro-4H-imidazol-4-one]
- IC50 (human HIPK1): > 10 µM
- Avg 1 uM (average myocyte proliferation) [1]: * (<10% growth relative to blank myocyte growth without compound added.)
- Avg 3 uM (average myocyte proliferation) [1]: * (<10% growth relative to blank myocyte growth without compound added.)

SMILES: O=C1NC(Nc2ccccc2)=N/C1=C\c1ccc2nn[nH]c2c1 [Example 56, (Z)-5-((1H-benzo[d][1,2,3]triazol-6-yl)methylene)-2-(phenylamino)-3,5-dihydro-4H-imidazol-4-one]
- IC50 (human HIPK1): > 10 µM
- Avg 1 uM (average myocyte proliferation) [1]: * (<10% growth relative to blank myocyte growth without compound added.)
- Avg 3 uM (average myocyte proliferation) [1]: * (<10% growth relative to blank myocyte growth without compound added.)

Reference: patent US12643887B2, “Heterocyclic derivatives with cardiomyocyte proliferation activity for treatment of heart diseases” (Tongji University, priority 2019, dated 2026)
